Assay results reported in patent US20200277246A1, “TREATMENT METHOD, COMPOUNDS, AND METHOD OF INCREASING TRPV2 ACTIVITY” (THE FEINSTEIN INSTITUTE FOR MEDICAL RESEARCH, priority 2015, published 2020).

Columns and labels:
FLS = FLS invasion, focused library screen (Table 1); assay type: cell-based; settings: evaluated over 24 hours in vitro
Method: The in vitro invasiveness of FLS was assayed in a transwell system using Matrigel-coated inserts (BD Biosciences, Franklin Lakes, N.J.), as previously described (Tolboom et al., “Invasiveness of Fibroblast-Like Synoviocytes is an Individual Patient Characteristic Associated with the Rate of Joint Destruction in Patients with Rheumatoid Arthritis,” Arthritis Rheum. 52 (7):1999-2002 (2005); Laragione et al., “The Arthritis Severity Locus Cia5d is a Novel Genetic Regulator of the Invasive Properties of Synovial Fibroblasts,” Arthritis Rheum. 58 (8):2296-2306 (2008), which are hereby incorporated by reference in their entirety). Briefly, 70-80% confluent cells were harvested by trypsin-EDTA digestion, and re-suspended at 2.0×10^4 cells in 500 μl of serum-free DMEM. Cells were placed in the upper compartment of the Matrigel-coated inserts. Where indicated, O1821, LER13, or vehicle was added to the upper chamber. The lower compartment was filled with complete media and the plates were incubated at 37° C. for 24 hours. After 24 hours the upper surface of the insert was wiped with cotton-swabs to remove non-invading cells and the Matrigel layer. The opposite side of the insert was stained with Crystal Violet (Sigma) and the total number of cells that invaded through Matrigel counted at 100× magnification. Experiments were done in duplicate.

[1] = test system: DBA1/J mice with collagen-induced arthritis; assay: Collagen induced arthritis (CIA); assay type: in vivo, mouse; settings: for Arthritis severity (CIA): collagen-induced arthritis
Source text: CIA was induced in 8-week-old male DBA1/J mice (Jackson Laboratories) using a standard protocol (Courtenay et al., “Immunisation Against Heterologous Type II Collagen Induces Arthritis in Mice,” Nature 283 (5748):666-668 (1980); Nagler-Anderson et al., “Suppression of Type II Collagen-Induced Arthritis by Intragastric Administration of Soluble Type II Collagen,” Proc. Natl. Acad. Sci. U.S.A. 83 (19):7443-7446 (1986), which are hereby incorporated by reference in their entirety). Briefly, bovine type II collagen (Chondrex, Redmond, Wash.) was dissolved overnight in acetic acid 0.1 N and then homogenized at 1:1 with Complete Freund's Adjuvant (CFA, Difco, Detroit, Mich.). Anesthetized mice were injected intradermally with 100 μg of type II collagen emulsified in CFA in the tail. The new Trpv2 agonist LER13 (10 mg/Kg) or control vehicle (PBS 50%, PEG300 40%, PG 5%, PS80 5%) was started on day 10 (D10) and administered intra-peritoneally every-other-day (from D10 until day 55). On day 21 (D21), mice received a booster injection of 100 μg of type II collagen in incomplete Freund's adjuvant. Clinical signs of arthritis were evident on day 24 (D24).
Arthritis severity in CIA mice was scored using a modified scoring system based on Jirholt et al., “Genetic Linkage Analysis of Collagen-Induced Arthritis in the Mouse,” Eur. J. Immunol. 28 (10):3321-3328 (1998), which is hereby incorporated by reference in its entirety. Briefly, the modified scoring system ranged from 0-16 per mouse per day and included a functional component of disease severity (non-weight bearing) in the maximum score of 4 per paw. The arthritis severity index (ASI), which is the sum of all scores obtained during the observation period, was used to compare treatment groups as it provides a comprehensive assessment of arthritis severity over time, and correlates with histologic damage (Brenner et al., “The Non-MHC Quantitative Trait Locus Cia10 Contains a Major Arthritis Gene and Regulates Disease Severity, Pannus Formation and Joint Damage,” Arthritis Rheum. 52 (1):322-332 (2005); Brenner et al., “The Non-MHC Quantitative Trait Locus Cia5 Contains Three Major Arthritis Genes that Differentially Regulate Disease Severity, Pannus Formation, and Joint Damage in Collagen- and Pristane-Induced Arthritis,” J. Immunol. 174 (12):7894-7903 (2005), which are hereby incorporated by reference in their entirety).

Trpv2 = biological target: T1, Trpv2 (Rattus norvegicus, UniProt Q9WUD2); assay: Intracellular calcium influx (Fluo-4 NW) in DA FLS; assay type: cell-based; parameters: endogenous in cells; host or cells: fibroblast-like synoviocytes (FLS) from DA rats; settings: measured over 200 seconds; compared with O1821
T1 sequence (Q9WUD2 1-761): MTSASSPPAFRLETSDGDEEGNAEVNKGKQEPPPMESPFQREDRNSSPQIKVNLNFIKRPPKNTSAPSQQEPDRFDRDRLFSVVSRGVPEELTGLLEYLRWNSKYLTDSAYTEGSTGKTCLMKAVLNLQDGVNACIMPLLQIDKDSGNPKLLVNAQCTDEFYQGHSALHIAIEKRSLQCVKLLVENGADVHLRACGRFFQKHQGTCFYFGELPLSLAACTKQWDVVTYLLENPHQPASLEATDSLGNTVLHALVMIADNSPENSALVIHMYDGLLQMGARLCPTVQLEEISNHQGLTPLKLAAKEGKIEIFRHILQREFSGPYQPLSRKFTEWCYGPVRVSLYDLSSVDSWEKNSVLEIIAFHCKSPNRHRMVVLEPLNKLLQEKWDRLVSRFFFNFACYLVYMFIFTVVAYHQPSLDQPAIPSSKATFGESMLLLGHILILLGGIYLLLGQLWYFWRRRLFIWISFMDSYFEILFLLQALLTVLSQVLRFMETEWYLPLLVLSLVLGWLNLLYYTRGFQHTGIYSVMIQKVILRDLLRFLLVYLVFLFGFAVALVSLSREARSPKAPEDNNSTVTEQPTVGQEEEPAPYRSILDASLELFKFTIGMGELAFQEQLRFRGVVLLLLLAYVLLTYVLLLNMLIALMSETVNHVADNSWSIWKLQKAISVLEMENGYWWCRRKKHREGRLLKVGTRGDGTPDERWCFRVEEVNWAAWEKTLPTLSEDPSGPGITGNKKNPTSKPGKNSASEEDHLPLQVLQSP
Method: Intracellular calcium influx was measured using the Fluo-4 NW calcium assay kit (Molecular Probes/Invitrogen) according to the manufacturer's instructions, as previously described (Laragione et al., “CXCL10 and its Receptor CXCR3 Regulate Synovial Fibroblast Invasion in Rheumatoid Arthritis,” Arthritis Rheum. 63 (11):3274-3283 (2011), which is hereby incorporated by reference in its entirety). Briefly, DA FLS were plated at a density of 4,500 cells/well in a 96-well plate (100 μl volume of complete media per well). After cell adhesion the media was changed to serum-free media for overnight culture. Serum-free media was then replaced with 50 μl of dye loading solution, followed by incubation at 37° C. for 30 minutes and a baseline fluorimetric reading. Then, O1821, LER13, or vehicle were added to their respective wells at different concentrations and fluorescence read immediately in a Fluoroskan Ascent Microplate Fluorometer (Thermo Scientific) with settings appropriate for excitation at 494 nm and emission at 516 nm.

[2] = test system: C57BL/6 mice with KRN serum transfer-induced arthritis; assay: KRN serum transfer induced arthritis (clinical scores and histology); assay type: in vivo, mouse; settings: KRN serum induced arthritis
Method: Seven to eight week-old C57BL/6 male mice (Jackson Laboratories) received 200 μl of KRN arthritogenic serum (Ji et al, “Genetic Influences on the End-Stage Effector Phase of Arthritis,” J. Exp. Med. 194 (3):321-330 (2001), which is hereby incorporated by reference in its entirety) (KBN TCR transgenic mice were a kind gift from Christophe Benoist and have been intercrossed with NOD at the Feinstein Institute to generate KRN mice and the arthritogenic serum) intraperitoneal (IP) on day zero (D0) and day 2 (D2). After the onset of clear ankle arthritis (day 3; D3), mice were started on O1821 10 mg/Kg IP BID or control vehicle (DMSO in saline solution). Arthritis severity was scored according to the system reported by Jirholt et al., “Genetic Linkage Analysis of Collagen-Induced Arthritis in the Mouse,” Eur. J. Immunol. 28 (10):3321-3328 (1998), which is hereby incorporated by reference in its entirety, which includes a number of involved joints and a degree of inflammation (swelling/redness) in a scale of 0-12 per mouse per day.
[…] Histology slides were scored without knowledge of treatment and according to a comprehensive scoring system previously reported that includes parameters for synovial hyperplasia, inflammatory cell infiltration, and bone and cartilage erosions (Brenner et al., “The Non-MHC Quantitative Trait Locus Cia10 Contains a Major Arthritis Gene and Regulates Disease Severity, Pannus Formation and Joint Damage,” Arthritis Rheum. 52 (1):322-332 (2005), which is hereby incorporated by reference in its entirety).

## C=C(C)[C@@H]1CCC(C)=CC1c1c(O)cc(O)cc1F (some centres unmarked) [Compound 10]
FLS
  FLS invasion decreased by: Decreased by 100%
[1]
  Arthritis severity (CIA): Not protective KRN and CIA
Trpv2
  Calcium influx: increased (20% greater than O1821)
[2]
  Arthritis severity (KRN): Not protective KRN and CIA

## C=C(C)[C@H]1CCC(C)=CC1c1c(/C=C/c2ccc(O)cc2)cc(O)c([C@@H]2C=C(C)CC[C@H]2C(=C)C)c1O (some centres unmarked) [Compound 6]
Trpv2
  Calcium influx: increased (similar to O1821)

## C=C(C)[C@@H]1CCC(C)=C[C@H]1c1c(O)cc(C)cc1O [Compound 1]
FLS
  FLS invasion decreased by: Decreased by 30%
Trpv2
  Calcium influx: increased
[2]
  Arthritis severity (KRN): Protective KRN

## C=C(C)[C@H]1CCC(C)=CC1c1c(O)cc(O)cc1/C=C/c1ccc(O)cc1 (some centres unmarked) [Compound 8]
Trpv2
  Calcium influx: increased (10% less than O1821)

## (1R,2″R,2R,2″S)-6′-ethynyl-5,5″-dimethyl-2,2″-di(prop-1-en-2-yl)-1,1″,2,2″,3,3″,4,4″-octahydro-[1,1′:3′,1″-terphenyl]-2′,4′-diol [Compound 13]
[1]; 10 mg/Kg IP every-other-day from D10, scoring to D76
  Arthritis severity index (ASI), mean±S.D.: 40.7±36.8

## C=C(C)[C@@H]1CCC(C)=CC1c1c(O)cc(Cl)cc1O (some centres unmarked) [Compound 12]
FLS
  FLS invasion decreased by: Decreased by 100%
[1]
  Arthritis severity (CIA): Not protective in CIA
Trpv2
  Calcium influx: increased (20% greater than O1821)

## C=C(C)[C@@H]1CCC(C)=C[C@H]1c1c(O)cc(/C=C/c2ccc(O)cc2)cc1O [Compound 7]
Trpv2
  Calcium influx: increased (50% less than O1821)

## C=C(C)[C@@H]1CCC(C)=CC1c1c(O)cc(O)cc1Cl (some centres unmarked) [Compound 11]
Trpv2
  Calcium influx: increased (20% greater than O1821)

## C=C(C)[C@H]1CCC(C)=CC1c1c(O)cc(O)c([C@@H]2C=C(C)CC[C@H]2C(=C)C)c1O (some centres unmarked) [Compound 4]
Trpv2
  Calcium influx: increased (25% less than O1821)

## C=C(C)[C@H]1CCC(C)=CC1c1c(O)c(C2C=C(C)CC[C@H]2C(=C)C)c(O)c([C@@H]2C=C(C)CC[C@H]2C(=C)C)c1O (some centres unmarked) [Compound 3]
Trpv2
  Calcium influx: increased (20% greater than O1821)

## C=C(C)[C@@H]1CCC(C)=C[C@H]1c1c(O)cc(O)cc1O [Compound 5]
Trpv2
  Calcium influx: increased (25% less than O1821)

## C=C(C)[C@@H]1CCC(C)=C[C@H]1c1c(C)cc(O)cc1O [Compound 2]
Trpv2
  Calcium influx: increased (like DMSO, but less than O1821)

## C=C(C)[C@@H]1CCC(C)=CC1c1c(O)cc(F)cc1O (some centres unmarked) [Compound 9]
Trpv2
  Calcium influx: increased (similar to O1821)

## C#Cc1cc(O)cc(O)c1C1C=C(C)CC[C@H]1C(=C)C (some centres unmarked) [Compound 14]
FLS
  FLS invasion decreased by: Decreased by 100%
Trpv2
  Calcium influx: increased (20% greater than O1821)
[2]
  Arthritis severity (KRN): Not protective in KRN
